Test results taken from ChEMBL document CHEMBL5058646 (2022).

What was measured:
[1] = target: T1, Telomere zinc finger-associated protein (Homo sapiens) (UniProt P10074); conditions: SUD4, Compound concentration 1.0 uM
T1 sequence (whole entry): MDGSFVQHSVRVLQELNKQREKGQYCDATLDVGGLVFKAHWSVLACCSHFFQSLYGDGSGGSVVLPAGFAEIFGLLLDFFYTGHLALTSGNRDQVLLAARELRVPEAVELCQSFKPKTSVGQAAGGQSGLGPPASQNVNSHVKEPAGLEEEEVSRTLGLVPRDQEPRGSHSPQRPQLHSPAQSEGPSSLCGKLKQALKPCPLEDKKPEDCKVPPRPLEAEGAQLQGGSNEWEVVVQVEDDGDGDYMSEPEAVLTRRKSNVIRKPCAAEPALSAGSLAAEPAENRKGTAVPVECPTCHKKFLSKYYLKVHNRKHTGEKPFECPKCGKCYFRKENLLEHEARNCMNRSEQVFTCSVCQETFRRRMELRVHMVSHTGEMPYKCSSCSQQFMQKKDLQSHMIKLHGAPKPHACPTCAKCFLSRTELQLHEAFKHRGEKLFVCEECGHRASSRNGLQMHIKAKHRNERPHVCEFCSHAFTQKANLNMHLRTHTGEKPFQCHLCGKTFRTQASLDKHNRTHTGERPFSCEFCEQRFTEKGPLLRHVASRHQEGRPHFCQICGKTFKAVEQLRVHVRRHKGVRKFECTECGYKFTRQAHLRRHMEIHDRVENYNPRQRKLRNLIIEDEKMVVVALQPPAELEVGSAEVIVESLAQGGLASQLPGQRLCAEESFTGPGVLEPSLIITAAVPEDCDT

[2] = target: GABA-A receptor; anion channel (Rattus norvegicus) (UniProt O09028+P15431+P18506+P18508+P19969+P20236+P23574+P23576+P28471+P28473+P30191+P62813+P63079+P63138+Q91ZM7+Q9ES14); conditions: Compound concentration 10.0 uM
[3] = target: Serine/threonine-protein kinase RIO1 (Homo sapiens) (UniProt Q9BRS2); test: RIOK1 SGC Tm panel (DSF); conditions: Compound concentration 20.0 uM
[4] = target: Sodium-dependent dopamine transporter (Homo sapiens, UniProt Q01959); test: GPCRScan assay: inhibition of DAT; set-up: radioligand conc. used [nm] 3.6 – 16.0, parental cells stable HEK
[5] = target: Aurora kinase B (Homo sapiens) (UniProt Q96GD4); test: AURKB SGC Tm panel (DSF); conditions: Compound concentration 20.0 uM
[6] = target: Alpha-1B adrenergic receptor (Homo sapiens) (UniProt P35368); conditions: Compound concentration 10.0 uM
[7] = target: Zinc finger and BTB domain-containing protein 21 (Homo sapiens) (UniProt Q9ULJ3); conditions: SUD4, Compound concentration 1.0 uM
[8] = target: Histamine H3 receptor (Homo sapiens, UniProt Q9Y5N1); conditions: Compound concentration 10.0 uM
[9] = target: Zinc finger and BTB domain-containing protein 43 (Homo sapiens) (UniProt O43298); conditions: SUD4, Compound concentration 1.0 uM
[10] = target: Serine/threonine-protein kinase OSR1 (Homo sapiens) (UniProt O95747); test: OSR1 SGC Tm panel (DSF); conditions: Compound concentration 20.0 uM
[11] = target: Histamine H4 receptor (Homo sapiens) (UniProt Q9H3N8); conditions: Compound concentration 10.0 uM
[12] = target: Serine/threonine-protein kinase pim-3 (Homo sapiens) (UniProt Q86V86); test: PIM3 SGC Tm panel (DSF); conditions: Compound concentration 20.0 uM
[13] = target: Fibroblast growth factor receptor 3 (Homo sapiens) (UniProt P22607); test: FGFR3 SGC Tm panel (DSF); conditions: Compound concentration 20.0 uM
[14] = target: T2, Zinc finger and BTB domain-containing protein 1 (Homo sapiens) (UniProt Q9Y2K1); conditions: OCI-Ly1, Compound concentration 1.0 uM
T2 sequence (whole entry): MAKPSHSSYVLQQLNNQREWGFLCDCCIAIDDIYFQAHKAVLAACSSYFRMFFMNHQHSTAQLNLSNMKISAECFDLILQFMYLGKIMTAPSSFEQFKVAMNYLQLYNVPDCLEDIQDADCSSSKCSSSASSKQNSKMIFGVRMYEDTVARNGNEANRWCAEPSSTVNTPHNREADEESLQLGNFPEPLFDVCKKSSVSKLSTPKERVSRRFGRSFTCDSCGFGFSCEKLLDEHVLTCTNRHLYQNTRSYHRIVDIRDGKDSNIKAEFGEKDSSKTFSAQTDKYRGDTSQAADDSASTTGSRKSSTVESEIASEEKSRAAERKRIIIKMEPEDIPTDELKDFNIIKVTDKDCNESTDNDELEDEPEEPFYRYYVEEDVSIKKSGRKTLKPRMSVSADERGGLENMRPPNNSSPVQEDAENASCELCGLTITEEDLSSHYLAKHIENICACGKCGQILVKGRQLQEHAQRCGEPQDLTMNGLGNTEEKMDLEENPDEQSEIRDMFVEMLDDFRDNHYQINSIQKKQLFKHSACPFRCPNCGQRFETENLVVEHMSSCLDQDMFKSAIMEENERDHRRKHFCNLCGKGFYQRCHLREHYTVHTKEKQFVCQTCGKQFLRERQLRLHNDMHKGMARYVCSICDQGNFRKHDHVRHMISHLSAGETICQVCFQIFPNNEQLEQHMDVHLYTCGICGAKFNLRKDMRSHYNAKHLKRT

[15] = target: Serine/threonine-protein kinase ULK1 (Homo sapiens) (UniProt O75385); test: ULK1 SGC Tm panel (DSF); conditions: Compound concentration 20.0 uM
[16] = target: Serine/threonine-protein kinase 17A (Homo sapiens) (UniProt Q9UEE5); test: STK17A SGC Tm panel (DSF); conditions: Compound concentration 20.0 uM

Chain of Sodium-dependent dopamine transporter (Q01959 whole entry): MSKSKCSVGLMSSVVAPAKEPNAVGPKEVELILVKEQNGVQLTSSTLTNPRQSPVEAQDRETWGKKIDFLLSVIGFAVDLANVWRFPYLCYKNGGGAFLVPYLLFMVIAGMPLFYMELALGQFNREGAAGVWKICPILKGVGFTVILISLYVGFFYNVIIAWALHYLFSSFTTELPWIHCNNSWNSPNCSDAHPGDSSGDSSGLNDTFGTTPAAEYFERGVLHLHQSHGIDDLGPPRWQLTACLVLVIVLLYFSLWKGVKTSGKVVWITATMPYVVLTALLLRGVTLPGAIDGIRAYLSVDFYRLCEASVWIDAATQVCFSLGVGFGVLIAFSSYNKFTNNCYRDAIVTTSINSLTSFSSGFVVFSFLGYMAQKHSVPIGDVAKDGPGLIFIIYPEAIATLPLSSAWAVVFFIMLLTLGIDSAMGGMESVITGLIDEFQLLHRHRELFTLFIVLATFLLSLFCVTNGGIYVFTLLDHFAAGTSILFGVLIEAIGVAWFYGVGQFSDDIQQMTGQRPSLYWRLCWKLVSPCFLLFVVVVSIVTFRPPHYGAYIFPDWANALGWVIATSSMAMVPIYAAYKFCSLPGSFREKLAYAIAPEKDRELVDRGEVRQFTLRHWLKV
Chain of Histamine H3 receptor (Q9Y5N1 whole entry, the tested form may be a part): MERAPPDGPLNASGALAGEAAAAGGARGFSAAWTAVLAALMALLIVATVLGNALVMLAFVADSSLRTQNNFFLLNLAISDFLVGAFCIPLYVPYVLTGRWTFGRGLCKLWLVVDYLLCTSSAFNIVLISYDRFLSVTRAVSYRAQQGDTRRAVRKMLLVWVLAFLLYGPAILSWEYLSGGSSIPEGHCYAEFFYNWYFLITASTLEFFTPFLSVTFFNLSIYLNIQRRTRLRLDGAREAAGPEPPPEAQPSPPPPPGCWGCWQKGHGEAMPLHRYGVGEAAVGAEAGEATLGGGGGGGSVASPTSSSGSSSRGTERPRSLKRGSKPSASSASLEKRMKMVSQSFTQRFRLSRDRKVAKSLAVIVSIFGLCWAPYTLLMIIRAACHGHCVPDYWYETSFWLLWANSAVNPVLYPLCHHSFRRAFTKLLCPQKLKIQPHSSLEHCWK
Chain of Serine/threonine-protein kinase RIO1 (Homo sapiens) (Q9BRS2 whole entry): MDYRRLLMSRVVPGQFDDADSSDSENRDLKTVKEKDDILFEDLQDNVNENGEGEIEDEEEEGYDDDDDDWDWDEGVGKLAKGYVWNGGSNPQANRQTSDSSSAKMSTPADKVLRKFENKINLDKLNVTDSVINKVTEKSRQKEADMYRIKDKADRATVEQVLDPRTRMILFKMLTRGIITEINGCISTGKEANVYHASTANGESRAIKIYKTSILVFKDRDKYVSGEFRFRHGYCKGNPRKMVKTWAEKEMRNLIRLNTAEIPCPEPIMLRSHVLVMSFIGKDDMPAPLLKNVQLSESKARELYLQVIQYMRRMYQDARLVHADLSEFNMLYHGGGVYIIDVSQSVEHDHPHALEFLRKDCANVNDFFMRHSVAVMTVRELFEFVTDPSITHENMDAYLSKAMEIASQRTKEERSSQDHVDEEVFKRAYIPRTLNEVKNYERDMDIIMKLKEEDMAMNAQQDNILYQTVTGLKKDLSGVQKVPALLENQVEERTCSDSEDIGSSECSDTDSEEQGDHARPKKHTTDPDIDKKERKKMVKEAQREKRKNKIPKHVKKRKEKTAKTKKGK
Chain of Fibroblast growth factor receptor 3 (Homo sapiens) (P22607 23-806 limits assumed): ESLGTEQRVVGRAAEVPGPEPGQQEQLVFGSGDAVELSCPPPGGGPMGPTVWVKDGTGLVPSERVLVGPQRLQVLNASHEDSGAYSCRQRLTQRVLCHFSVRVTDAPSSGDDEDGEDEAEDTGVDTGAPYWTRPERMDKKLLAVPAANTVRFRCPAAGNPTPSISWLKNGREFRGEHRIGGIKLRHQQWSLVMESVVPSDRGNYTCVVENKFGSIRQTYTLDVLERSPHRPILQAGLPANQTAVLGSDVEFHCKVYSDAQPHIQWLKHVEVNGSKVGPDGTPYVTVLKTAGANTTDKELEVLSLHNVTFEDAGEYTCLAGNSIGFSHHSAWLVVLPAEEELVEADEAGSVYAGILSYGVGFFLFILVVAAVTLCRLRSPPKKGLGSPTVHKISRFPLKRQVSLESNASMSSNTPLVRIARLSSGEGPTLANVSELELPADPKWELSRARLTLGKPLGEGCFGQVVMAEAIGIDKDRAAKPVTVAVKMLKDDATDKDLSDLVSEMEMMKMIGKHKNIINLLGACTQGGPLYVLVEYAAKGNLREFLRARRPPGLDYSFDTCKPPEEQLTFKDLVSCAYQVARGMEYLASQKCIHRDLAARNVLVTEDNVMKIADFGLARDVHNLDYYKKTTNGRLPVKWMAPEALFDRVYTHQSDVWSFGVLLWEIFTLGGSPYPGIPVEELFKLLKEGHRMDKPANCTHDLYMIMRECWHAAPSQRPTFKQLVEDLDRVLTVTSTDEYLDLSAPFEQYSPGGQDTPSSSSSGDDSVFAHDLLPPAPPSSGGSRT
Chain of Zinc finger and BTB domain-containing protein 21 (Homo sapiens) (Q9ULJ3 whole entry, the tested form may be a part): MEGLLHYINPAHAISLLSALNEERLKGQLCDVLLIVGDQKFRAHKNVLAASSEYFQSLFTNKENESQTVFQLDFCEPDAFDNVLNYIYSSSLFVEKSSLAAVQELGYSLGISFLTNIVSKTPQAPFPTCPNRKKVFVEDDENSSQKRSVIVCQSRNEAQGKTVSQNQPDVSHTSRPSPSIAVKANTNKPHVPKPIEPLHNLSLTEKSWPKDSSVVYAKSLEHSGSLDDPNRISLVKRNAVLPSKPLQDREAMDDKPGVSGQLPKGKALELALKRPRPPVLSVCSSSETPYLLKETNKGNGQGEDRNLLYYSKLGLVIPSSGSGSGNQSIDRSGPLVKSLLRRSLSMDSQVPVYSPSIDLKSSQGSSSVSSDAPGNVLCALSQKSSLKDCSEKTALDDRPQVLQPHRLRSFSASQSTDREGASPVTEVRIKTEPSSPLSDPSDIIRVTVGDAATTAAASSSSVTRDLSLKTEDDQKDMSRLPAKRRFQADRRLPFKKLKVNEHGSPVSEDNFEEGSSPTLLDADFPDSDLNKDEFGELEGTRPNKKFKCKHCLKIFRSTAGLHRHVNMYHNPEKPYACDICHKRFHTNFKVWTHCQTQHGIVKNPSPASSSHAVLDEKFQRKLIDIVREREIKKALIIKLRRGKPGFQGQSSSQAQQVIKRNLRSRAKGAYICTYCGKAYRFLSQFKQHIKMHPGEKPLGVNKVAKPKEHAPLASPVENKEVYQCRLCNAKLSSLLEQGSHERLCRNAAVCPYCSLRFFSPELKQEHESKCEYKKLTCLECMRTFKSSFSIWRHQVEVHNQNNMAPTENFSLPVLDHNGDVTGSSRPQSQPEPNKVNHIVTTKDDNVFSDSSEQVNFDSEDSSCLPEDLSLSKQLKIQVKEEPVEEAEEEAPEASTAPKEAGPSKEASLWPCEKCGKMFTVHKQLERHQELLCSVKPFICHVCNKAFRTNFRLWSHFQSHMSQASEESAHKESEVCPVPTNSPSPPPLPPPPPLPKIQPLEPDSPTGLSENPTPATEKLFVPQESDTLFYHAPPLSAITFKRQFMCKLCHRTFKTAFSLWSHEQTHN
Chain of Alpha-1B adrenergic receptor (Homo sapiens) (P35368 whole entry, the tested form may be a part): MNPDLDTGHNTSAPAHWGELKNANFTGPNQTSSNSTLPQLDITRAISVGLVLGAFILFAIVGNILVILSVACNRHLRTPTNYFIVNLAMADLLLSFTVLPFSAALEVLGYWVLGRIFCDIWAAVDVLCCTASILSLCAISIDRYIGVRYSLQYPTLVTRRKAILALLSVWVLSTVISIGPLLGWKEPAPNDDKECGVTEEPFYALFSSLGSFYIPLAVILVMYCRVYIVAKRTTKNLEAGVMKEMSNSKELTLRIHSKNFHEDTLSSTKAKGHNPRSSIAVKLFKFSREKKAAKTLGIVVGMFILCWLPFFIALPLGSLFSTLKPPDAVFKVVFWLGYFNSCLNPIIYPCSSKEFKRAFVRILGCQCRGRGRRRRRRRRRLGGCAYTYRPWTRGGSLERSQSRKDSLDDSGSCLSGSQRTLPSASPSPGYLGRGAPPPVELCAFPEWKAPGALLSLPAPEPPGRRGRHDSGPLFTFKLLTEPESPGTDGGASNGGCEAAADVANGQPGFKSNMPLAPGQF
Chain of Serine/threonine-protein kinase OSR1 (Homo sapiens) (O95747 2-527 limits assumed): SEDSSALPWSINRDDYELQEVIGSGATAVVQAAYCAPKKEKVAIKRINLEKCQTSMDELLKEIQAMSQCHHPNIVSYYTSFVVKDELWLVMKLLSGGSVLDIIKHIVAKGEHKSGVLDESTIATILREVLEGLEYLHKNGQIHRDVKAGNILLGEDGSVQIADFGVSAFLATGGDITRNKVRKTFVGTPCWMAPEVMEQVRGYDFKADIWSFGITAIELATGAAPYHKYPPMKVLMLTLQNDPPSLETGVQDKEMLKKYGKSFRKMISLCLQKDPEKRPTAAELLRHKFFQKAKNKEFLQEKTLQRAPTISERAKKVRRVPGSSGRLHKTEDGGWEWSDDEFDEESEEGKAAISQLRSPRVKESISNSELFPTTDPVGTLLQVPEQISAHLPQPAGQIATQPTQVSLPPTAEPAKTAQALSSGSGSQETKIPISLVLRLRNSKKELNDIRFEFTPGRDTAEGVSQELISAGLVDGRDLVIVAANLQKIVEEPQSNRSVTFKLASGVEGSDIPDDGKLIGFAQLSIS

- LogFC [1]: 0.0324
- inhibition [2]: 7.06%
- Tm [3]: 40 °C
- Ki ([4]; read-out: Ki): 5.09 µM
- Ki ([4]; read-out: pKi (converted)): 4.9 µM
- Tm [5]: 46 °C
- inhibition [6]: 12.4%
- LogFC [7]: 0.0103
- inhibition [8]: 60.7%
- LogFC [9]: 0.0194
- Tm [10]: 39 °C
- inhibition [11]: -0.79%
- Tm [12]: 40 °C
- Tm [13]: 42 °C
- LogFC [14]: -0.0612
- Tm [15]: 41 °C
- Tm [16]: 42 °C
Structure (SMILES): C[C@@H]1CN(c2ncc(Cl)c(Nc3ccc4c(c3)n(CCC(C)(C)O)c(=O)n4C)n2)C[C@H](C)C1(F)F
